In brackets after ≈: the same amount, converted by molar mass. Marks after values point to notes of the source that are not given here.
How the values were obtained:
[1] = cited from earlier work
Aqueous solubility = assay type: physicochemical
[2] = Nucleation induction time of supersaturated enzalutamide solutions with pre-dissolved polymer (UV dip probe); assay type: physicochemical; conditions: absence of polymers; initial 70 μg/mL enzalutamide, pH 6.5 phosphate buffer, 37 °C
Description: The average time to detect the onset of crystallization for supersaturated solutions of enzalutamide was determined in phosphate buffer (pH 6.5, 50 mM) containing pre-dissolved polymer using an in situ UV dip probe as described by Mosquera-Giraldo et al.[11]. […] For enzalutamide the absorbance maximum is 237 nm and the baseline wavelength used was 446 nm. […] Next, a methanolic solution of enzalutamide (245 µL, 10 mg/mL) was added to the polymeric solution (35 mL) magnetically stirred at 300 rpm and maintained at 37 °C, leading to an initial enzalutamide concentration of 70 µg/mL. The experiments were performed in triplicate.

CNC(=O)c1ccc(N2C(=S)N(c3ccc(C#N)c(C(F)(F)F)c3)C(=O)C2(C)C)cc1F [Enzalutamide]
Aqueous solubility (amorphous solubility) ([1]; amorphous solubility of the drug): 0.042^a mg/mL
Free drug molecularly dissolved ([1]; when 70 μg/mL enzalutamide is added to buffer, rest is colloidal amorphous aggregates): approximately 42 μg/mL
Supersaturation ratio (S, amorphous solubility/crystalline solubility) (Aqueous solubility): approximately 14.5
solubility (Aqueous solubility; crystalline form): 2.9 µg/mL (≈ 6.24 µM)
Nucleation induction time [2]: ~ 15 min

— paper PMC7595150, “Amorphous solid dispersions of enzalutamide and novel polysaccharide derivatives: investigation of relationships between polymer structure and performance” (Scientific Reports, 2020)
